In paper PMC6054532, “Dynamics of human protein kinase Aurora A linked to drug selectivity” (eLife, 2018):
Values belong to the molecule of their own block, whether it stands above or below them.

Experiments:
[1] = target: T1, Biotinylated T288V Aurora A (Homo sapiens, UniProt O14965, T288V); test: Creoptix WAVE waveguide interferometry (double jump, slow-off, macroscopic KD); type: binding; conditions: 25°C; complex formed after 1 hour of incubation
T1 construct: made in house
T1 sequence (O14965 122-403 T288V): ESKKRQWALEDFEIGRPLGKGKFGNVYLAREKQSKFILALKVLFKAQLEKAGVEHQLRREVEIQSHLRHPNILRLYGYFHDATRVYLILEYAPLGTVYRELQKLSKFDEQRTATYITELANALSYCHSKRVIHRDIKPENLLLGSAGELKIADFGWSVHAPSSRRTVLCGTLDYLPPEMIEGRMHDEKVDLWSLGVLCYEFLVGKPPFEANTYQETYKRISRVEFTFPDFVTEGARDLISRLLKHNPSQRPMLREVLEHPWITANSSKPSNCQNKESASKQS
Method: All chemicals were purchased from GE Healthcare, unless otherwise stated. The protocols in the WAVE control software for conditioning of the chip, immobilization of proteins and performing kinetics experiments were followed. In short, the polycarboxylate chip (PCH) was activated by injection of a 1:1 mixture with final concentrations of 200 mM N-ethyl-N’-(3-dimethylaminopropyl)carbodiimide (EDC) and 50 mM N-hydroxysuccinimide (NHS), followed by streptavidin immobilization (50 μg/mL in 10 mM sodium acetate pH 5.0). Unreacted sites on the chip were blocked with 1 M ethanolamine pH 8.0. For all activation, immobilization and passivation steps 0.2x HBS-EP was used as running buffer with a flowrate of 10 μL/min and an injection duration of 420 s on both channels 1 and 2.
All experiments were run in 50 mM HEPES, 50 mM NaCl, 20 mM MgCl2, 5 mM TCEP, 0.03 mg/mL BSA, 0.005% Tween-20, pH 7.30 as running buffer.

Aurora B = conditions: ref Howard et al., 2009; cited from earlier work
[2] = target: T2, dephosphorylated Aurora A (Homo sapiens, UniProt O14965); test: Stopped-flow intrinsic tryptophan fluorescence drug binding kinetics
T2 construct: made in house; host or cells: E. coli BL21(DE3)
T2 sequence (O14965 122-403): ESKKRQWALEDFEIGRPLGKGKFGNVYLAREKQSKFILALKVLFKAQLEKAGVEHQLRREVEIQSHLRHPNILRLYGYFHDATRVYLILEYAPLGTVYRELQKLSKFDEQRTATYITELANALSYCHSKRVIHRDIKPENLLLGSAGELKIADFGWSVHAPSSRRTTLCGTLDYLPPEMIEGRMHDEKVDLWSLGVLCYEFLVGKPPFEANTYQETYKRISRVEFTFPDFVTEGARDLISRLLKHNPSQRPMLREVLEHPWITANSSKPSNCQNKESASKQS
Method: (§1) The rapid kinetics were studied using a stopped-flow spectrophotometer (SX20 series from Applied Photophysics Ltd). The flow system was made anaerobic by rinsing with degassed buffer comprised of 50 mM HEPES, 50 mM NaCl, 20 mM MgCl2, 5 mM TCEP, 5% DMSO, pH 7.30 to minimize photobleaching. The stock solutions of Aurora A and all drugs were made anaerobic by degassing with ThermoVac (MicroCal) at the desired temperature. In general, a solution of 5 μM Aurora A was loaded in one syringe and quickly mixed with drug, prepared in the same buffer, in the other syringe (mixing ratio 1:10). […] For each drug concentration, at least five replicate measurements were made and these transients were averaged. Analysis was performed by fitting the individual trace to exponential equations using Pro-Data Viewer (Applied Photophysics Ltd) or with Kinesyst 3 software (TgK Scientific) and error bars denote the standard errors as obtained from the fit. KaleidaGraph version 4.5.3 (Synergy) was used for data analysis and plotting.
The approximate values of k1 and k−1 obtained from fitting to this equation are used as starting values for the global fit.

Aurora C = tested on: Aurora C; design: method as in Carpinelli et al., 2007; Fraedrich et al., 2012; conditions: ref Carpinelli et al., 2007; Fraedrich et al., 2012; cited from earlier work
Aurora A [3] = target: T3, Aurora A (Homo sapiens, UniProt O14965); test: Global fit of binding and dissociation kinetics (KinTek Explorer) and constants calculated from microscopic rate constants; conditions: for weakening of overall affinity by the DFG-in and -out equilibrium: DFG-out binders
T3 construct: made in house; host or cells: E. coli BL21(DE3)
T3 sequence (O14965 122-403): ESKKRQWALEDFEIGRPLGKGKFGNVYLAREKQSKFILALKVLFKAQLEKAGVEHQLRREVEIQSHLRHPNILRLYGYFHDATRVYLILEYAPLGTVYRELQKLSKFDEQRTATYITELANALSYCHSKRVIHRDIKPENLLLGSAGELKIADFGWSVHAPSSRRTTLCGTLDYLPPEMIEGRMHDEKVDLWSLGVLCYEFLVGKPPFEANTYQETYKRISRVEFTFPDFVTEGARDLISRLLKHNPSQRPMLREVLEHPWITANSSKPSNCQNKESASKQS
Method: as §1

Aurora A [4] = target: T3, Aurora A; test: mant-ATP binding kinetics by stopped-flow FRET from Trp, with global fit; conditions: 10°C
Method: Inhibitor binding followed by an induced-fit step:(3) Eout+ I⇌koffkonEout⋅I⇌k−3k3Eout∗⋅I K2K3KD=K2∗K3/(K3+1)
FRET using intrinsic tryptophan fluorescence is used to monitor mant-ATP (obtained from Jena Bioscience) binding kinetics to Aurora A at 10°C. In the binding experiment or kon , increasing concentration of mant-ATP were quickly mixed to 0.5 µM Aurora A (ratio 1:10, excitation at 295 nm, emission cut-off at 395 nm). In the experiment to measure the release of mant-ATP or koff , 10 µM/10 µM Aurora A/mant-ATP complex was diluted with buffer (ratio 1:10). A significant decrease in the fluorescence intensity of Aurora A (excitation at 295 nm, emission cut-off at 395 nm) can be seen due to the mant-ATP release.

[5] = target: the molecule itself; test: crystal structure; co-crystallised: 240 μM deP Aurora A 122-403 + 1.0 mM AT9283 + 250 μM Mb; sitting drop, 18°C, 0.1 M Bis-Tris pH 5.5, 0.2 M magnesium chloride, 19% (w/v) PEG-3350

Molecule: O=C(Nc1c[nH]nc1-c1nc2ccc(CN3CCOCC3)cc2[nH]1)NC1CC1 [AT9283]
slow dissociation, double exponential, fast phase (kobs1 slow-off) [1]: (1.1 ± 0.02) × 10^−2 s^−1
slow dissociation, double exponential, slow phase (kobs2 slow-off) [1]: (0.1 ± 0.01) × 10^−2 s^−1
IC50 (Aurora B): 3 nM

Molecule: CO[C@@H](C(=O)N1Cc2n[nH]c(NC(=O)c3ccc(N4CCN(C)CC4)cc3)c2C1)c1ccccc1 [Danusertib]
k-2 (intercept of kobs,Binding plot) ([2]; 25°C): 4.6 ± 3 s⁻¹
kobs of slow phase, plateau (induced-fit step, k3+k-3) ([2]; 25°C): approximately 16 ± 2 s^−1
IC50 (Aurora C): 61 nM
weakening of overall affinity by the DFG-in and -out equilibrium (Aurora A [3]): 1.6 fold
tighter binding resulting from the conformational change after drug binding (Aurora A [3]; induced-fit step): four orders of magnitude

B1: dephosphorylated Aurora A (122-403) (domain or fragment, human, UniProt O14965 122-403, looked up)
chain: ESKKRQWALEDFEIGRPLGKGKFGNVYLAREKQSKFILALKVLFKAQLEKAGVEHQLRREVEIQSHLRHPNILRLYGYFHDATRVYLILEYAPLGTVYRELQKLSKFDEQRTATYITELANALSYCHSKRVIHRDIKPENLLLGSAGELKIADFGWSVHAPSSRRTTLCGTLDYLPPEMIEGRMHDEKVDLWSLGVLCYEFLVGKPPFEANTYQETYKRISRVEFTFPDFVTEGARDLISRLLKHNPSQRPMLREVLEHPWITANSSKPSNCQNKESASKQS
notes: human Ser/Thr kinase Aurora A, residues 122-403, dephosphorylated (confirmed by mass spectrometry); E. coli BL21(DE3) is named only for the isotope-labelled samples; also called deP Aurora A^122-403; AurA; source: expressed and purified as described before (Zorba et al., 2014)
binding result [5]: binds

More lines, now with the values ahead:

k2, bimolecular rate constant (slope of kobs,Binding vs concentration, fast phase) ([2]; 10°C): 1.1e+06 ± 300000 M⁻¹ s⁻¹
k-2, dissociation from intercept of binding plot (kdiss) ([2]; 10°C): 31 ± 2 s⁻¹
weakening of overall affinity by the DFG-in and -out equilibrium (Aurora A [3]): 1.6 fold
Molecule: Cc1ccc(NC(=O)c2ccc(CN3CCN(C)CC3)cc2)cc1Nc1nccc(-c2cccnc2)n1 [Gleevec]

k2 (plot of kobs vs concentration, fast phase) (Aurora A [4]): 800000 ± 200000 M⁻¹ s⁻¹
k-2 (plot of kobs vs concentration, fast phase) (Aurora A [4]): 50 ± 8 s⁻¹
kobs of slow phase, plateau (k3+k-3) (Aurora A [4]): around 21 ± 1 s^−1
Molecule: mant-ATP
